How the values were obtained:
[1] = system: MV4-11 cells; assay: MV4-11 Cell Cytotoxicity Assay (CellTiter-Blue, 72 h); format: cell-based, human; conditions: Homo sapiens, MV4-11; MV-4-11 cells
Method in brief: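 Cells seeded 24 h before treatment, then exposed 72 h at 37° C, 5% CO2 to inhibitors in triplicate, top concentration 50 μM with 1:2 serial dilutions (0.5% DMSO vehicle). Viability read by CellTiter-Blue fluorescence at 560/590 nm after 1 h.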

[2] = system: glutathione (GSH); assay: Reactivity Profiling with Glutathione (GSH), half-life by HPLC; conditions: 5 mM glutathione (GSH) in IMDM with 10% FBS
Protocol: 3.5 μL of 5 mM stocking solution of the inhibitors in DMSO was added to 697.5 μL of Iscove's Modified Dulbecco's Medium (IMDM) supplemented with 10% FBS and antibiotic antimycotic solution, with 5 mM glutathione to afford a final concentration of 25 μM inhibitor with 0.5% DMSO. The solution was then immediately placed in the sample tray at 25° C. […] For each inhibitor, its peak is integrated at different time points and compared to the time zero injection in order to obtain a percentage remaining. Half-life is calculated according to a first order reaction kinetic taking into account those time points for which remaining percentage of inhibitor is above 40%, using the formula: t½=Ln(2)/k, where k is the slope of the linear plot of Ln[Inhibitor] vs time, according to the formula: Ln[A]=Ln[A]0−kt, where [A] is the value resulting from the integration at each time point, [A]0 the value at time zero, and t the time. For each inhibitor, both replicates are averaged and the resulting t½ reported.

Row | Compound | IC50 [1] [nM] | half-life at 25 μM [2] [h]
1 | CC(c1cc(CN(C(=O)CN(Cc2ccccc2F)S(=O)(=O)c2c(F)c(F)c(F)c(F)c2F)c2ccc(C(=O)O)c(O)c2)cc(C2CC2)c1)C(F)(F)F (stereo not drawn) [Compound 1086, 4-(N-(3-cyclopropyl-5-(1,1,1-trifluoropropan-2-yl)benzyl)-2-(N-(2-fluorobenzyl)-(2,3,4,5,6-pentafluoro-phenyl)sulfonamido)acetamido)-2-hydroxybenzoic acid] | 1000 to 3160 | 2.37 to 4.12
2 | Cc1cc(C(=O)O)ccc1N(Cc1cc(C2CC2)cc(C(C)(C)C)c1)C(=O)CN(Cc1ccccc1F)S(=O)(=O)c1c(F)c(F)c(F)c(F)c1F [Compound 1088, 4-(N-(3-(tert-butyl)-5-cyclopropylbenzyl)-2-(N-(2-fluorobenzyl)-(2,3,4,5,6-pentafluoro-phenyl)sulfonamido)acetamido)-3-methylbenzoic acid] | 0.01 to 316 | 2.37 to 4.12
3 | Cc1cc(C(=O)O)ccc1N(Cc1cc(C2CC2)cc(C(C)(C)C)c1)C(=O)CN(Cc1ccccc1C(F)(F)F)S(=O)(=O)c1c(F)c(F)c(F)c(F)c1F [Compound 1089, 4-(N-(3-(tert-butyl)-5-cyclopropylbenzyl)-2-(N-(2-(trifluoromethyl)benzyl)-(2,3,4,5,6-pentafluoro-phenyl)sulfonamido)acetamido)-3-methylbenzoic acid] | 316 to 1000 | 9.23 to 1670
4 | Cc1cc(C(=O)O)ccc1N(Cc1cc(C2CC2)cc(C(C)(C)C)c1)C(=O)CN(Cc1ccccc1C#N)S(=O)(=O)c1c(F)c(F)c(F)c(F)c1F [Compound 1090, 4-(N-(3-(tert-butyl)-5-cyclopropylbenzyl)-2-(N-(2-cyanobenzyl)-(2,3,4,5,6-pentafluorophenyl)sulfon-amido)acetamido)-3-methylbenzoic acid] | 316 to 1000 | 2.37 to 4.12
5 | CC(C)(C)c1cc(CN(C(=O)CN(Cc2ccccc2F)S(=O)(=O)c2c(F)c(F)c(F)c(F)c2F)c2ccc(C(=O)O)cc2OC2CC(F)(F)C2)cc(C2CC2)c1 [Compound 1093, 4-(N-(3-(tert-butyl)-5-cyclopropylbenzyl)-2-(N-(2-fluorobenzyl)-(2,3,4,5,6-pentafluoro-phenyl)sulfonamido)acetamido)-3-(3,3-difluorocyclobutoxy) benzoic acid] | 316 to 1000 | 9.23 to 1670
6 | COc1cc(C(=O)O)ccc1N(Cc1cc(C2CC2)cc(C(C)(C)C)c1)C(=O)CN(Cc1ccc(F)nc1F)S(=O)(=O)c1c(F)c(F)c(F)c(F)c1F [Compound 1095, 4-(N-(3-(tert-butyl)-5-cyclopropylbenzyl)-2-(N-((2,6-difluoropyridin-3-yl)methyl)-(2,3,4,5,6-pentafluorophenyl)sulfon-amido)acetamido)-3-methoxybenzoic acid] | 0.01 to 316 | 0.00167 to 2.37
7 | COc1cc(C(=O)O)ccc1N(Cc1cc(C2CC2)cc(C(C)(C)C)c1)C(=O)CN(Cc1cccnc1C(F)(F)F)S(=O)(=O)c1c(F)c(F)c(F)c(F)c1F [Compound 1097, 4-(N-(3-(tert-butyl)-5-cyclopropylbenzyl)-2-(N-((2-(trifluoromethyl)pyridin-3-yl)methyl)-(2,3,4,5,6-pentafluoro-phenyl)sulfonamido)acetamido)-3-methoxybenzoic acid] | 316 to 1000 | 4.12 to 9.23
8 | O=C(O)c1ccc(N(Cc2cc(C3CC3)cc(C3CC3)c2)C(=O)CN(Cc2ccccc2F)S(=O)(=O)c2c(F)c(F)c(F)c(F)c2F)c(OC2CC2)c1 [Compound 1099, 3-cyclopropoxy-4-(N-(3,5-dicyclopropylbenzyl)-2-(N-(2-fluorobenzyl)-(2,3,4,5,6-pentafluoro-phenyl)sulfonamido)acetamido)benzoic acid] | 0.01 to 316 | 4.12 to 9.23
9 | CC(C)(C)c1cc(CN(C(=O)CN(C2CC2)S(=O)(=O)c2c(F)c(F)c(F)c(F)c2F)c2ccc(C(=O)O)cc2OC2CC2)cc(C2CC2)c1 [Compound 1100, 4-(N-(3-(tert-butyl)-5-cyclopropylbenzyl)-2-(N-cyclopropyl-(2,3,4,5,6-pentafluorophenyl)sulfon-amido)acetamido)-3-cyclopropoxybenzoic acid] | 316 to 1000 | 0.00167 to 2.37
10 | CN(C)c1cc(C(=O)O)ccc1N(Cc1cc(C2CC2)cc(C(C)(C)C)c1)C(=O)CN(Cc1ccccc1F)S(=O)(=O)c1c(F)c(F)c(F)c(F)c1F [Compound 1105, 4-(N-(3-(tert-butyl)-5-cyclopropylbenzyl)-2-(N-(2-fluorobenzyl)-(2,3,4,5,6-pentafluoro-phenyl)sulfonamido)acetamido)-3-(dimethylamino)benzoic acid] | 0.01 to 316 | 4.12 to 9.23
11 | CC(C)(C)c1cc(CN(C(=O)CN(Cc2ccccc2F)S(=O)(=O)c2c(F)c(F)c(F)c(F)c2F)c2cc(C(=O)O)ccc2OC2CC2)cc(C2CC2)c1 [Compound 1110, 3-(N-(3-(tert-butyl)-5-cyclopropylbenzyl)-2-(N-(2-fluorobenzyl)-(2,3,4,5,6-pentafluoro-phenyl)sulfonamido)acetamido)-4-cyclopropoxybenzoic acid] | 316 to 1000 | 2.37 to 4.12
12 | CC(C)(C)c1cc(CN(C(=O)CN(Cc2ncccc2C(F)(F)F)S(=O)(=O)c2c(F)c(F)c(F)c(F)c2F)c2ccc(C(=O)O)cc2C2CC2)cc(C2CC2)c1 [Compound 1115, 4-(N-(3-(tert-butyl)-5-cyclopropylbenzyl)-2-(N-((3-(trifluoromethyl)pyridin-2-yl)methyl)-(2,3,4,5,6-pentafluoro-phenyl)sulfonamido)acetamido)-3-cyclopropylbenzoic acid] | 0.01 to 316 | 4.12 to 9.23
13 | COc1cc(C(=O)O)ccc1N(Cc1cc(C2CC2)cc(C(C)(C)C)c1)C(=O)CN(Cc1ccc(C(F)(F)F)cn1)S(=O)(=O)c1c(F)c(F)c(F)c(F)c1F [Compound 1117, 4-(N-(3-(tert-butyl)-5-cyclopropylbenzyl)-2-(N-((5-(trifluoromethyl)pyridin-2-yl)methyl)-(2,3,4,5,6-pentafluoro-phenyl)sulfonamido)acetamido)-3-methoxybenzoic acid] | 316 to 1000 | 2.37 to 4.12
14 | COc1cc(C(=O)O)ccc1N(Cc1cc(C2CC2)cc(C(C)(C)C)c1)C(=O)CN(Cc1cccc(C(F)(F)F)n1)S(=O)(=O)c1c(F)c(F)c(F)c(F)c1F [Compound 1118, 4-(N-(3-(tert-butyl)-5-cyclopropylbenzyl)-2-(N-((6-(trifluoromethyl)pyridin-2-yl)methyl)-(2,3,4,5,6-pentafluoro-phenyl)sulfonamido)acetamido)-3-methoxybenzoic acid] | 316 to 1000 | 0.00167 to 2.37
15 | CN(C)c1cc(C(=O)O)c(F)cc1N(Cc1cc(C2CC2)cc(C(C)(C)C)c1)C(=O)CN(Cc1c(F)cc(F)cc1F)S(=O)(=O)c1c(F)c(F)c(F)c(F)c1F [Compound 1124, 4-(N-(3-(tert-butyl)-5-cyclopropylbenzyl)-2-(N-(2,4,6-trifluorobenzyl)-(2,3,4,5,6-pentafluoro-phenyl)sulfonamido)acetamido)-5-(dimethylamino)-2-fluorobenzoic acid] | 0.01 to 316 | 4.12 to 9.23
16 | O=C(O)c1ccc(N(Cc2ccccc2)C(=O)CN(Cc2ccccc2C(F)(F)F)S(=O)(=O)c2c(F)c(F)c(F)c(F)c2F)c(OC2CC2)c1 [Compound 1126, 4-(N-benzyl-2-(N-(2-(trifluoromethyl)benzyl)-(2,3,4,5,6-pentafluoro-phenyl)sulfonamido)acetamido)-3-cyclopropoxybenzoic acid] | 1000 to 3160 | 0.00167 to 2.37
17 | O=C(O)c1ccc(N(Cc2ncccn2)C(=O)CN(Cc2ccccc2C(F)(F)F)S(=O)(=O)c2c(F)c(F)c(F)c(F)c2F)c(OC2CC2)c1 [Compound 1128, 3-cyclopropoxy-4-(2-(N-(2-(trifluoromethyl)benzyl)-(2,3,4,5,6-pentafluoro-phenyl)sulfonamido)-N-(pyrimidin-2-ylmethyl)acetamido) benzoic acid] | 1000 to 3160 | 0.00167 to 2.37
18 | O=C(O)c1ccc(N(C(=O)CN(Cc2ccccc2C(F)(F)F)S(=O)(=O)c2c(F)c(F)c(F)c(F)c2F)C2CCC2)c(OC2CC2)c1 [Compound 1129, 4-(N-cyclobutyl-2-(N-(2-(trifluoromethyl)benzyl)-(2,3,4,5,6-pentafluoro-phenyl)sulfonamido)acetamido)-3-cyclopropoxybenzoic acid] | 3160 to 100000 | 2.37 to 4.12
19 | COc1cc(C(=O)O)ccc1N(Cc1cc(C2CC2)cc(C(C)(C)C)c1)C(=O)CN(Cc1ccncc1C(F)(F)F)S(=O)(=O)c1c(F)c(F)c(F)c(F)c1F [Compound 1130, 4-(N-(3-(tert-butyl)-5-cyclopropylbenzyl)-2-(N-((3-(trifluoromethyl)pyridin-4-yl)methyl)-(2,3,4,5,6-pentafluoro-phenyl)sulfonamido)acetamido)-3-methoxybenzoic acid] | 316 to 1000 | 2.37 to 4.12
20 | COc1cc(C(=O)O)ccc1N(Cc1cc(C2CC2)cc(C(C)(C)C)c1)C(=O)CN(Cc1ccc(C(F)(F)F)nc1)S(=O)(=O)c1c(F)c(F)c(F)c(F)c1F [Compound 1132, 4-(N-(3-(tert-butyl)-5-cyclopropylbenzyl)-2-(N-((6-(trifluoromethyl)pyridin-3-yl)methyl)-(2,3,4,5,6-pentafluoro-phenyl)sulfonamido)acetamido)-3-methoxybenzoic acid] | 316 to 1000 | 2.37 to 4.12
21 | COc1cc(C(=O)O)ccc1N(Cc1cc(C2CC2)cc(C(C)(C)C)c1)C(=O)CN(Cc1ccnc(C(F)(F)F)c1)S(=O)(=O)c1c(F)c(F)c(F)c(F)c1F [Compound 1133, 4-(N-(3-(tert-butyl)-5-cyclopropylbenzyl)-2-(N-((2-(trifluoromethyl)pyridin-4-yl)methyl)-(2,3,4,5,6-pentafluoro-phenyl)sulfonamido)acetamido)-3-methoxybenzoic acid] | 316 to 1000 | 0.00167 to 2.37

From patent publication US20230159445A1, “STAT INHIBITORY COMPOUNDS AND COMPOSITIONS” (JANPIX LIMITED, priority 2020, published 2023)
